Assay results: patent publication US20230085440A1, “METHODS OF PREVENTING AND TREATING PAIN AND ASSOCIATED SYMPTOMS” (Ethismos Research, Inc., priority 2021, published 2023)

Target: T1, 5-HT2c receptor (Homo sapiens, UniProt P28335)
T1 sequence (P28335 33-458): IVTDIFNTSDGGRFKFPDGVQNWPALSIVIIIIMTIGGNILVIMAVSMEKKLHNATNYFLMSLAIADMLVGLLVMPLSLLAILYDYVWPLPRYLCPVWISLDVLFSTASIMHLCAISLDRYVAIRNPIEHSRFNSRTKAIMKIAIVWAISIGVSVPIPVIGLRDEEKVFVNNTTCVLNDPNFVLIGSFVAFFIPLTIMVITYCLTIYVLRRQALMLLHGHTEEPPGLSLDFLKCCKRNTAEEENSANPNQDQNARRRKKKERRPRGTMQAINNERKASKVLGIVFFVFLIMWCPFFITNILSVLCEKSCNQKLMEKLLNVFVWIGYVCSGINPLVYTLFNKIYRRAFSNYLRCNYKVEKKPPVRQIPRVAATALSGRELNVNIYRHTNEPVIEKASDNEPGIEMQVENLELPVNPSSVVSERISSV
Assay: [35S]guanosine 5-O-(3-thio)triphosphate binding (5-HT2c partial agonism)
Type: biochemical
Conditions: [35S]GTPgammaS binding, partial agonist

Molecule `Clc1ccc([C@]23CNC[C@H]2C3)cc1Cl` [amitifadine] has an Emax of 52%.
